Broadly, the EC50 is the concentration that produces a half-maximal response.

For one assay, the system named is estrogen synthesis. Briefly: Estrogen synthesis inhibition in rats (uterine weight and ovarian steroid concentrations). Format: in vivo, female Wistar rats. The settings on record: for Mean Steroid Concentration, estradiol / Mean Steroid Concentration, estriol / Mean Steroid Concentration, estrone: ovaries; for Mean Uterine Weight: testosterone propionate-treated rats.

Another assay deals with T1, aromatase (Rattus norvegicus, UniProt P22443).
T1 construct: ovarian microsomes are obtained from rats treated with pregnant mares serum gonadotropin; from tissue; host or cells: ovarian microsomes of rats treated with pregnant mares serum gonadotropin
T1 sequence (P22443 1-508): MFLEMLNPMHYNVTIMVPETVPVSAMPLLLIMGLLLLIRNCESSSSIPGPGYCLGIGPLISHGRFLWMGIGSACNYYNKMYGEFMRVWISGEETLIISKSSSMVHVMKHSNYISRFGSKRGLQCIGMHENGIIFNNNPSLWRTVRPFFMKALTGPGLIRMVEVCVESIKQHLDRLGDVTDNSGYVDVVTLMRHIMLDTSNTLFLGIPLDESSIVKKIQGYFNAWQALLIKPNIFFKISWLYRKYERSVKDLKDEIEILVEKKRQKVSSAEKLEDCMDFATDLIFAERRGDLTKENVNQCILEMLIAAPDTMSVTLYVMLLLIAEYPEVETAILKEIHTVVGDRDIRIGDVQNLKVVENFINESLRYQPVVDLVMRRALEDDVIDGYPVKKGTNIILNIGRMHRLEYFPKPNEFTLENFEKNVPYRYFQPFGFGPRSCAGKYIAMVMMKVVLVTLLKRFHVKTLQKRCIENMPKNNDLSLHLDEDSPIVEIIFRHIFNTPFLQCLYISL
Briefly: Aromatase inhibition in the rat ovarian microsome assay. Format: biochemical. The settings on record: EC50: concentration required to achieve 50% inhibition of aromatase activity, substrate (androstenedione) concentration 0.1 μM.

The mark [1] stands for this setting: 30 ppm in feed (approximately 3 mg/kg/day).
Where [2] appears, read: 300 ppm in feed (approximately 30 mg/kg/day).

Structures can show the parent of a compound that is named as a salt.

Procedure for aromatase: In this test system, ovarian microsomes are obtained from rats treated with pregnant mares serum gonadotropin. Test compounds are added to reaction vials containing 0.1 μM 4-androstene-3,17-dione, 100,000 dpm 1,2[^3 H]-androstenedione, the microsomes and a NADPH generating system. The concentrations of the inhibitors tested ranged between 0.005 and 10 μM.
Procedure for estrogen synthesis: Test compounds were administered for seven days either daily by gavage in corn oil or as a component of the diet. Control animals received either corn oil or diet without the test compound. Beginning on the fourth day of the test, all animals treated with the test compound and one half of the control animals were given a subcutaneous injection of 1.0 mg of testosterone propionate in corn oil. The remaining control animals received only an equivalent volume of corn oil.
After two hours, the animals were killed by decapitation. Uteri were isolated, trimmed of extraneous connective tissue, and weighed. […] In the control animals treated with testosterone propionate, estrogens produced by aromatization stimulated the uterus resulting in an increase in weight.
The ovarian steroids were extracted with 1.5 ml of 9:1 (v/v) toluene/ethanol to which had been added 25 to 100 mcg each of unlabelled estradiol, estriol, and estrone, and approximately 1000 dpm of [^14 C]-estradiol. The samples were vortexed, centrifuged at 500×g for 10 minutes, and the organic phase was transferred to a conical vial. Two additional extractions were performed on the residue in the same way. The pooled organic extracts were evaporated for subsequent thin-layer chromatography.
Ovarian proteins were precipitated by the addition of 5.0 ml of ethanol to the remaining aqueous phase. After an overnight incubation at 4° C., the samples were centrifuged at 1500×g for 10 minutes. The supernatant was discarded, and the pellet was dissolved in 0.3N potassium hydroxide.
The organic residue from each above extraction was redissolved in 9:1 (v/v) dichloromethane/methanol. The solution of each sample was applied to separate silica gel thin layer chromatography plates which contained a fluorescent indicator. The plates were developed in the first dimension with 160:38:1.5:0.5 (v/v/v/v) dichloromethane/ethyl acetate/methanol/acetic acid to within 3 cm of the top of the plate. After air-drying, the plate was developed in the second dimension with 180:19:1 (v/v/v) dichloromethane/methanol/ammonium hydroxide. The plate was air-dried and viewed under 254 nm UV light.
The visible spots were marked and the plates were sprayed with primulin (0.001% in 4:1 v/v acetone/water) according to the method of Wright, J. Chromatography, 59, 220 (1971) which allowed for the identification of additional steroids under 365 nm UV light. The spots were scraped from the plate using a glass wool plugged Pasteur pipet attached to a vacuum line. The steroids were eluted directly into scintillation vials by the addition of 0.2 ml of dichloromethane followed by two washes each of 2.0 ml of methanol. The organic solvent was evaporated and 10.0 ml of scintillation fluid (Beckman Ready Solv-NA) was added to the vials. Samples were analyzed by liquid scintillation spectrometry. Corrections were made based on the recoveries of the [^14 C]-steroid. Steroid concentrations are expressed as femtomoles per milligram protein.

Consider `c1ccc(C(c2ccccc2)(c2ccccc2)n2ccnc2)cc1` [1-tritylimidazole], for which, in the assay with estrogen synthesis (setting [1]), the “Mean Steroid Concentration, estradiol” value is reported as 0.75 femtomoles per milligram of protein; the “Mean Steroid Concentration, estriol” value was 0.44 femtomoles per milligram of protein; the “Mean Steroid Concentration, estrone” value is on record as 0.23 femtomoles per milligram of protein; the “Mean Uterine Weight” value was determined as 135.0 mg. Moreover, in the assay on estrogen synthesis (setting [2]), the “Mean Steroid Concentration, estradiol” value is 0.64 femtomoles per milligram of protein; the “Mean Steroid Concentration, estriol” value was 0.28 femtomoles per milligram of protein; the “Mean Steroid Concentration, estrone” value is 0.21 femtomoles per milligram of protein; the “Mean Uterine Weight” value was 122.6 mg. Moreover, the EC50 on aromatase came to 32 nM.
As for `C#CC(c1ccccc1)(c1ccccc1)n1ccnc1` [1-(1,1-diphenyl-2-propynyl)-1H--imidazole], in the assay with estrogen synthesis (setting [1]), the “Mean Steroid Concentration, estradiol” value is reported as 1.05 femtomoles per milligram of protein; the “Mean Steroid Concentration, estriol” value is 1.06 femtomoles per milligram of protein; the “Mean Steroid Concentration, estrone” value was 0.00 femtomoles per milligram of protein; the “Mean Uterine Weight” value is on record as 212.3 mg. For the same compound, in the assay on estrogen synthesis (setting [2]), the “Mean Steroid Concentration, estradiol” value is 1.01 femtomoles per milligram of protein; the “Mean Steroid Concentration, estriol” value is listed as 0.60 femtomoles per milligram of protein; the “Mean Steroid Concentration, estrone” value was 0.00 femtomoles per milligram of protein; the “Mean Uterine Weight” value was determined as 137.6 mg. The same compound had an EC50 on aromatase of 18 nM.
As for `CCOc1ccccc1C(C1CCCCC1)n1ccnc1` (stereo not drawn) [1-[cyclohexyl(2-ethoxyphenyl)methyl]-1H--imidazole hydrochloride], in the assay with estrogen synthesis (setting [1]), the “Mean Steroid Concentration, estradiol” value was 1.30 femtomoles per milligram of protein; the “Mean Steroid Concentration, estriol” value is listed as 0.36 femtomoles per milligram of protein; the “Mean Steroid Concentration, estrone” value is recorded as 0.24 femtomoles per milligram of protein; the “Mean Uterine Weight” value is 149.0 mg. In the assay on estrogen synthesis (setting [2]), the “Mean Steroid Concentration, estradiol” value is recorded as 1.11 femtomoles per milligram of protein; the “Mean Steroid Concentration, estriol” value is recorded as 0.28 femtomoles per milligram of protein; the “Mean Steroid Concentration, estrone” value was 0.20 femtomoles per milligram of protein; the “Mean Uterine Weight” value was determined as 96.6 mg. In addition, on aromatase, the EC50 was 22 nM.
Consider `COc1ccc(C(c2ccccc2)(c2ccc(OC)cc2)n2ccnc2)cc1` [1-[α,α-bis(4-methoxyphenyl)benzyl]imidazole], for which, at aromatase, the EC50 was 64 nM.
Same read-out and setting: then `CSc1ccc(C(c2ccccc2)(c2cccnc2)n2cncn2)cc1` (stereo not drawn) [3-([4-(methylthio)phenyl]phenyl-1H--1,2,4-triazol-1-ylmethyl)pyridine], with 195 nM; and `CCOc1ccccc1Cn1ccnc1` [1-[(2-ethoxyphenyl)methyl]-1H--imidazole hydrochloride], with 1560 nM.
On the same count and under the same terms, the value for `Cc1ccccc1Cn1ccnc1` [1-[(2-methylphenyl)methyl]-1H--imidazole hydrochloride] was 1500 nM; that for `Clc1ccc(Cn2ccnc2)cc1` [1-(4-chlorobenzyl)imidazole hydrochloride] was 450 nM; that for `O=[N+]([O-])c1cccc(Cn2ccnc2)c1` [1-[(3-nitrophenyl)methyl]-1H--imidazole hydrochloride] was 1130 nM.
On aromatase, `CC(c1ccccc1Cl)n1ccnc1` (stereo not drawn) [1-[1-(2-chlorophenyl)ethyl]-1H--imidazole hydrochloride] displayed an EC50 of 2500 nM.
Same read-out and setting: then `c1ccc(C(c2ccccc2)n2cncn2)cc1` [1-diphenylmethyl-1H--1,2,4-triazole], with more than 5000 nM; and `c1ccc(Cn2ccnc2)cc1` [1-benzylimidazole], with 2800 nM; and `Clc1ccc(Cn2ccnc2)cc1` [1-(4-chlorobenzyl)-1H--imidazole], with 140 nM.
Same read-out and setting: the value for `Cc1cccc(Cn2ccnc2)c1` [1-[(3-methylphenyl)methyl]-1H--imidazole ethanedioate] was 920 nM.
The same measure, in the same setting: the value for `Clc1cccc(Cl)c1COc1ccccc1Cn1ccnc1` [1-[(2-[2,6-dichlorobenzyloxy]phenyl)methyl]-1H--imidazole nitrate] was 125 nM; that for `COc1ccc(C(c2ccccc2)(c2ccc(OC)cc2)n2cncn2)cc1` [1-[bis(4-methoxyphenyl)phenylmethyl]-1H--1,2,4-triazole] was 240 nM; that for `c1ccc(C(c2ccccc2)(c2cccc3ccccc23)n2ccnc2)cc1` [1-(1-naphthalenyldiphenylmethyl)-1H--imidazole] was 96 nM.
`FC(F)(F)c1ccccc1Cn1ccnc1` [1-[(2-trifluoromethylphenyl)methyl]-1H--imidazole hydrochloride] gave an EC50 at aromatase of 1750 nM.
Same read-out and setting: the value for `Fc1ccc(C(c2ccc(F)cc2)n2cncn2)cc1` [1-[bis(4-fluorophenyl)methyl]-1H--1,2,4-triazole] was 94 nM; that for `C=C(c1ccccc1OCc1cccc(Cl)c1)n1ccnc1` [1-[1-(2-[(3-chlorophenyl)methoxy]phenyl)ethenyl]-1H--imidazole hydrochloride] was 165 nM.
At aromatase, `Clc1ccc(C(c2cccnc2)(c2ccccc2Cl)n2ccnc2)cc1` (stereo not drawn) [3-[(2-chlorophenyl)(4-chlorophenyl)-1H--imidazol-1-ylmethyl]pyridine] registered an EC50 of 86 nM.
Still for that read-out and setting: the value for `Clc1ccccc1C(c1cccnc1)(c1ccccc1Cl)n1cncn1` [3-[bis(2-chlorophenyl)-1H--1,2,4-triazol-1-ylmethyl]pyridine] was 720 nM.
Same read-out and setting: the value for `CSc1ccc(C(c2ccccc2)(c2cccnc2)n2ccnc2)cc1` (stereo not drawn) [3-(1H--imidazol-1-yl-[4-(methylthio)phenyl]phenylmethyl)pyridine] was less than 50 nM; that for `Clc1ccccc1C(c1cccnc1)(c1ccccc1Cl)n1ccnc1` [3-[bis(2-chlorophenyl)-1H--imidazol-1-ylmethyl]pyridine] was 305 nM.
Same read-out and setting: then `Cc1ccc(Cn2ccnc2)cc1` [1-[(4-methylphenyl)methyl]-1H--imidazole hydrochloride], with 840 nM.
With `Clc1ccc(C(c2ccc(Cl)cc2)(c2ccc(Cl)cc2)n2cncn2)cc1` [1-[tris(4-chlorophenyl)methyl]-1H--1,2,4-triazole], a half-maximal effect at aromatase (EC50) was put at 420 nM.
The compound `Clc1ccc(C(c2ccccc2)(c2ccccc2)n2ccnc2)cc1` [1-[(4-chlorophenyl)diphenylmethyl)-1H--imidazole] came in with an EC50 at aromatase of 69 nM.
On the same count and under the same terms, the value for `Clc1ccc(Cl)c(Cn2ccnc2)c1` [1-[(2,5-dichlorophenyl)methyl]-1H--imidazole hydrochloride] was 160 nM.
The same measure, in the same setting: the value for `CC(c1ccccc1)n1ccnc1` (stereo not drawn) [1-(1-phenylethyl)-1H--imidazole hydrochloride] was 1050 nM; that for `FC(F)(F)c1ccc(Cn2ccnc2)cc1` [1-[(4-trifluoromethylphenyl)methyl]-1H--imidazole ethanedioate] was 190 nM; that for `Clc1ccc(C(c2ccccc2)(c2ccccc2)n2cncn2)cc1` [1-[(4-chlorophenyl)diphenylmethyl]-1H--1,2,4-triazole] was 95 nM.
The compound `CCOc1ccccc1C(C)n1ccnc1` (stereo not drawn) [1-[1-(2-ethoxyphenyl)ethyl]-1H--imidazole nitrate] displayed an EC50 at aromatase of less than 50 nM.
Same read-out and setting: the value for `COc1ccccc1Cn1ccnc1` [1-[(2-methoxyphenyl)methyl]-1H--imidazole hydrochloride] was 2100 nM; that for `Clc1ccc(C(c2ccccc2)n2cncn2)cc1` (stereo not drawn) [1-[(4-chlorophenyl)phenylmethyl]-1H--1,2,4-triazole] was 150 nM; that for `Cc1nccn1C(c1ccccc1)(c1ccccc1)c1ccc(Cl)cc1` [1-[(4-chlorophenyl)diphenylmethyl]-2-methyl-1H--imidazole] was 80 nM.
Still for that read-out and setting: then `c1ccc2c(Cn3ccnc3)cccc2c1` [1-(1-naphthalenylmethyl)-1H--imidazole hydrochloride], with 330 nM; and `C#CC(c1ccc(Cl)cc1)(c1ccc(Cl)cc1)n1ccnc1` [1-[1,1-bis(4-chlorophenyl)-2-propynyl]-1H--imidazole], with less than 50 nM; and `c1ccc(C(c2ccccc2)(c2ccncc2)n2cncn2)cc1` [4-(diphenyl-1H--1,2,4-triazole-1-ylmethyl)pyridine], with 160 nM.
On the same count and under the same terms, the value for `Fc1ccc(C(c2ccc(Cl)cc2)n2cnnc2)cc1` (stereo not drawn) [4-[(4-chlorophenyl)(4-fluorophenyl)methyl]-4H--1,2,4-triazole] was 80 nM.
On aromatase, `Clc1ccc(Cn2ccnc2)cc1Cl` [1-[(3,4-dichlorophenyl)methyl]-1H--imidazole hydrochloride] showed an EC50 of 320 nM.
Take `Cc1nccn1C(c1ccc(Cl)cc1)(c1ccc(Cl)cc1)c1ccc(Cl)cc1` [1-tris(4-chlorophenyl)methyl-2-methyl-1H--imidazole]: the midpoint of the response at aromatase, the EC50, lay at 270 nM.
Same read-out and setting: the value for `O=[N+]([O-])c1ccccc1Cn1ccnc1` [1-[(2-nitrophenyl)methyl]-1H--imidazole hydrochloride] was 3100 nM.
